Molecules are shown by their SMILES.

A short description of this data set: Human HepG2 cell viability assay in 384 well format. The data set is classed as toxicity, cell-based. Also noted: dose 125 nL, time 70.5 hour; cytotoxicity at 70.5 h: concentration not given beside the values. The following applies: HepG2 cells, read-out: Inhibition.
With `CCc1ccc(NC(=O)c2ncc(C(N)=O)cc2Cl)cc1F`, the cytotoxicity at 70.5 h was -107%. Next, `CC(C)Nc1cccc(CNC(=O)N2CCC[C@@H]2CO)c1`: -2.37%; `CC(C)NC(=O)c1sccc1N(C)S(=O)(=O)c1ccc(Cl)cc1`: -8.11%; `CCn1ccnc1CNCC1CCCN1c1cccnn1` (stereo not given): 5.62%. As to `O=C(O)CSc1nccc(-c2ccc3c(c2)OCO3)n1`, the cytotoxicity at 70.5 h was -7.09%. Consider `Cc1cc(C2CCC2)nc(N2CCC3(CCCNC3=O)C2)n1` (stereo not given), for which the cytotoxicity at 70.5 h was -18.8%. With `c1ccc2c(c1)cnn2CCCNC1CCOC2(CCOCC2)C1` (stereo not given), the cytotoxicity at 70.5 h is -13.6%.

As for `COc1ccc(NC(=O)NC(C)(C)c2noc(C)n2)cc1`, the cytotoxicity at 70.5 h was 0.532%.

`O=C(c1ccco1)N1C[C@H]2CN(Cc3cccc(F)c3)C(=O)[C@H]2C1`: the cytotoxicity at 70.5 h is -7.79%. With `Cc1ccc(NC2CCN(C(=O)CCNc3ncccn3)CC2)nn1`, the cytotoxicity at 70.5 h was -9.43%. With `Cc1cnc(C(=O)N2CCCC(c3nccn3Cc3cscn3)C2)cn1` (stereo not given), the cytotoxicity at 70.5 h was -3.23%.

Regarding `O[C@H]1[C@H](n2cc(-c3cccnc3)nn2)c2ccccc2C12CCNCC2`, the cytotoxicity at 70.5 h came to 0.63%. As for `NC(=O)CN1CCC(C(=O)NCC(O)c2cccc(F)c2)CC1` (stereo not given), the cytotoxicity at 70.5 h was -10.5%. For the molecule `CCc1nc(C2CCCN2C(=O)CCCOc2cccc(F)c2)no1` (stereo not given), the cytotoxicity at 70.5 h was -18.6%. As for `OCCN1CCN(Cc2coc(-c3cccc(Cl)c3)n2)CC1`, the cytotoxicity at 70.5 h was 24.5%. For the molecule `c1cnc(N2CCc3onc(CN4CCCC4)c3C2)cn1`, the cytotoxicity at 70.5 h came to 6.11%. `CC(=O)N1CCn2c(-c3ccccc3)cnc2C12CCNCC2`: the cytotoxicity at 70.5 h was -6.82%. Consider `N#Cc1cccc(-c2ncnn2CC2(O)CCCCC2)c1`, for which the cytotoxicity at 70.5 h is -3.16%. For the molecule `Cn1ncc2c(=O)[nH]c(CN3CCCC3Cc3ccccc3)nc21` (stereo not given), the cytotoxicity at 70.5 h is -13.7%. As for `COc1ccccc1CN1C(=O)O[C@@H]2CN(c3nc(C)cnc3C)C[C@@H]21`, the cytotoxicity at 70.5 h was -3.32%. For the molecule `CS(=O)(=O)N1CCC2(CC1)CN(CC1CCOC1)c1ccccc12` (stereo not given), the cytotoxicity at 70.5 h came out at 5.41%. Turning to `CCc1cnc(N2C[C@@H]3[C@@H](C(=O)NC(C)C)CCS(=O)(=O)[C@@H]3C2)nc1`, the cytotoxicity at 70.5 h turned out to be 0.524%. Next, `Fc1ccc(CN2CCCN(Cc3cscn3)CC2)cc1`: 23.4%; `CC(C)(C)CN1CCCC12CCN(S(=O)(=O)c1ccccc1)C2` (stereo not given): -2.83%; `Cc1cc(C)n2ncc(CN3CCC(n4cc(CCO)nn4)CC3)c2n1`: -1.82%. Next, `CCc1cnc(N)nc1NCCN1CCCCC1`: 23%. With `O=C(Cn1c(=O)n(Cc2ccco2)c2ncccc21)NC1CCCC1`, the cytotoxicity at 70.5 h was -7.12%.

In the case of `CCc1nc(CCNc2ncccc2C#N)sc1C`, the cytotoxicity at 70.5 h was -8.12%. In the case of `Cc1nsc(NC(=O)NC2(CN3CCOCC3)CCCC2)n1`, the cytotoxicity at 70.5 h is -8.03%. In the case of `Cc1ccc(S(=O)(=O)N2CC[C@H]3CO[C@H](CN(C)C)[C@H]3C2)cc1`, the cytotoxicity at 70.5 h is -6.81%.

Turning to `Cc1ccc(C)c(Oc2ccc(CNC(=O)C3CCC(=O)N3)cn2)c1` (stereo not given), the cytotoxicity at 70.5 h is -4.69%. As for `Cc1cccc(CN2C(=O)C[C@H]3[C@@H]2CCN3Cc2ccc(F)cc2)n1`, the cytotoxicity at 70.5 h is -2.72%. With `CCn1ncc2c1C(COC)N(C(=O)c1ccsc1)CC2` (stereo not given), the cytotoxicity at 70.5 h is -6.73%.

On to `Cc1nc(NC(=O)NCc2cccnc2NCCN(C)C)sc1C`, for which the cytotoxicity at 70.5 h was -2.85%. Next, `Cc1nnc(CN(Cc2ccc3c(c2)OCO3)C2CCCCC2)o1`: -2.59%. The result for `COc1ccc(C2CCCN2C(=O)c2ccc(=O)n(C)c2)cc1OC` (stereo not given) reads -6.18%. `Cc1ccc(-c2nc(CN3CCOC(Cn4cccn4)C3)cs2)o1` (stereo not given): the cytotoxicity at 70.5 h is -13.3%.

As for `CN(Cc1ccc(N2CCCCC2)cc1)Cc1noc(C(C)(C)C)n1`, the cytotoxicity at 70.5 h was -9.02%.

Regarding `CCOc1ncccc1NC(=O)N1CCCC(CNC(N)=O)C1` (stereo not given), the cytotoxicity at 70.5 h was -8.62%. Turning to `CC(=O)c1ccc(OCC(=O)NS(=O)(=O)c2cccnc2)cc1`, the cytotoxicity at 70.5 h was determined as 17.6%.

Turning to `COCCN1CCc2ccccc2NCCC1=O`, the cytotoxicity at 70.5 h was -6.61%. On to `COc1cccc(CC(=O)N2CCC(c3ccn4nccc4n3)CC2)c1`, for which the cytotoxicity at 70.5 h is -3.73%.

On to `CC(=O)NCCCC(=O)NC(C)c1nnc2n1CCC2` (stereo not given), for which the cytotoxicity at 70.5 h is -11.1%. Take `CCc1nsc(N2CCCN(CC(=O)N(C)C3CC3)CC2)n1`: the cytotoxicity at 70.5 h is -6.24%. In the case of `COc1ccccc1-c1cc(NC(=O)CCC2CCCO2)[nH]n1` (stereo not given), the cytotoxicity at 70.5 h stood at 36.9%. Next, `Cc1noc(C)c1CN1CCC(c2nc3cc(Cl)ccc3o2)CC1`: -14.6%; `CC(C)CC(=O)N1CCCn2cnc(CN3CCCC3=O)c2C1`: -4.92%. With `Cc1nc2cc(F)cc(C(=O)N3CCN(CCO)CC3)c2nc1C`, the cytotoxicity at 70.5 h was -5.18%. Take `CS(=O)(=O)N[C@@H]1CCN(Cc2nccs2)[C@H]1Cc1ccncc1`: the cytotoxicity at 70.5 h was -13.1%. On to `CCOC(=O)C1CCN(C(=O)c2cnn(-c3ccc(C)cc3)c2N)CC1`, for which the cytotoxicity at 70.5 h is -5.44%. In the case of `COc1ccc(CN2CCO[C@H]3[C@H](OCc4ccncc4)CC[C@@H]32)cc1`, the cytotoxicity at 70.5 h is 58.1%. Take `O=C(C1CCCC1)N1CCC(Nc2ccncn2)CC1`: the cytotoxicity at 70.5 h was -3.92%. For `CCOC(=O)CSc1ccc(-c2nc(CC)no2)cn1`, the cytotoxicity at 70.5 h is -2.21%. Consider `CCN(CC)CCn1cc(NC(=O)c2ccccc2OC)cn1`, for which the cytotoxicity at 70.5 h was -12.2%. For the molecule `N#Cc1ccc(CNCCn2cccn2)c(F)c1`, the cytotoxicity at 70.5 h worked out at 13.7%. Next, `O=C1[C@@H]2CCN(Cc3ccccn3)C[C@@H]2OCCN1c1ccccc1`: -4.44%; `O=C(N[C@H]1CN(C2CCOCC2)C[C@@H]1C1CC1)c1cc(O)no1`: -7.33%; `CCCNC(=O)CNC(=O)CCc1ccccc1Br`: -7.6%. Consider `Cc1cc2c(cc1Cl)C=CC1(CCN(C(=O)N3CCOCC3)CC1)O2`, for which the cytotoxicity at 70.5 h was found to be 22%.

Turning to `CSCCC(C)NC(=O)c1cccc(-c2n[nH]c(C)n2)c1` (stereo not given), the cytotoxicity at 70.5 h is -6.77%. For `NC(=O)CN1CCCC1c1cncc(Oc2ccc(Cl)cc2)n1` (stereo not given), the cytotoxicity at 70.5 h was -4.42%. For the molecule `COc1cc(C(=O)N2CCC(Nc3cccnc3)CC2)ccc1C`, the cytotoxicity at 70.5 h was found to be 6.09%. Regarding `CN(C)S(=O)(=O)N1CC[C@@H]2CN(Cc3cnn(C)c3)C[C@@H]2C1`, the cytotoxicity at 70.5 h is 32.1%. As for `COC(=O)C(C)(C)NC(=O)C1CC(=O)N(C2CCCC2)C1` (stereo not given), the cytotoxicity at 70.5 h was -9.13%.

As to `Cc1n[nH]c(C2CN(C(=O)c3cc(C4CC4)[nH]n3)CCO2)n1` (stereo not given), the cytotoxicity at 70.5 h came out at 4.51%. Regarding `O=C(CC1CCc2ccccc21)N1CCC(O)(c2cccnc2)CC1` (stereo not given), the cytotoxicity at 70.5 h was -9.82%. As to `O=C(c1ccsc1)N1CCc2ncc(Cn3cncn3)n2CC1`, the cytotoxicity at 70.5 h was -14.2%.

Consider `Cc1ncsc1CN1C[C@H](C(=O)NCC2CC2)[C@@H]2CCO[C@@H]2C1`, for which the cytotoxicity at 70.5 h is -7.28%. The result for `COc1cc(CNc2nc(N3CCOCC3)ns2)cc(OC)c1OC` reads -5.63%; that for `Cn1cc(CN2C[C@H](Oc3ncccc3F)[C@H]3OCCC[C@H]32)cn1`, -10.3%.
